For one assay, the target named is T1, IRAK1 (Homo sapiens, UniProt P51617).
T1 construct: His-TEV-IRAK1 (194-712); His (N); TEV cleavage site (N)
As to the kind of experiment: IRAK1 enzymatic assay (ADP-Glo luminescence). The format is biochemical. Conditions: purified human recombinant His-TEV-IRAK1 (194-712). How it is done:
IRAK1 is a human purified recombinant enzyme (His-TEV-IRAK1 (194-712))
In this assay, IRAK1 hydrolyses ATP and autophosphorylates. Measurement of IRAK-1 inhibition is performed in 384-well format based on luminescence assay (ADP-Glo™ Kinase Assay from Promega). Purified human recombinant IRAK1 (0.3 μg/ml) and serial diluted compounds in DMSO (range of concentration from 10 μM to 0.5 nM) or controls (1% DMSO) are incubated for 15 minutes at RT in assay buffer containing 50 mM Hepes pH 7.0, Fatty acid-free BSA 0.1%, Dithiothreitol (DTT) 2 mM, MgCl2 10 mM, EGTA 0.5 mM, Triton X-100 0.01%. The kinase reaction is then initiated by the addition of ATP […] After 2 hours of incubation at RT, the reaction is stopped and the unconsumed ATP depleted by the addition of ADP-Glo™ Reagent according to supplier instructions. After 40 minutes of incubation at RT, the Kinase Detection Reagent is then added to the assay plate according to supplier instructions. After 20 minutes of incubation at RT, the luminescence signal is measured with a luminometer (PerkinElmer Envision or equivalent reader).

The target of the next assay is T2, IRAK4 (Homo sapiens, UniProt Q9NWZ3).
T2 construct: His-TEV-IRAK4 (1-460); His (N); TEV cleavage site (N)
T2 sequence (Q9NWZ3 1-460): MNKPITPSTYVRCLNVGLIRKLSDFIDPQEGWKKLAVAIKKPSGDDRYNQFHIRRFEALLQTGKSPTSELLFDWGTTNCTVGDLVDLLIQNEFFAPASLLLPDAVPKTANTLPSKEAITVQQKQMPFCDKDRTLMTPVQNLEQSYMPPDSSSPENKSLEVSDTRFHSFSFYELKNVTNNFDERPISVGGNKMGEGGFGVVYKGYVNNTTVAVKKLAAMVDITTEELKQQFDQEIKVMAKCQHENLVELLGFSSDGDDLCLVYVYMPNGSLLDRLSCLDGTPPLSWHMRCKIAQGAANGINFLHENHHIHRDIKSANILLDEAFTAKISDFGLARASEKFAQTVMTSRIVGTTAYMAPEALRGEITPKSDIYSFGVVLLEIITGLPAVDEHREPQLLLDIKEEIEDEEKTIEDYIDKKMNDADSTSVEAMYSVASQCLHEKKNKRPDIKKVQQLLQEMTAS
The assay can be described thus: IRAK4 enzymatic assay (ADP-Glo luminescence). Conditions: purified human recombinant His-TEV-IRAK4 (1-460), ATP 2 μM. It is filed as biochemical. How it is done:
IRAK4 is a human purified recombinant enzyme (His-TEV-IRAK4 (1-460)).
In this assay, IRAK4 hydrolyses ATP, autophosphorylates and phosphorylates a Serine/Threonine generic peptidic substrate (STK: 61ST1BLC from CisBio International). Measurement of IRAK-4 inhibition is performed in 384-well format based on a luminescence assay (ADP-Glo™ Kinase Assay from Promega). Purified human recombinant IRAK4 (0.3 μg/ml) and serial diluted compounds in DMSO (range of concentration from 10 μM to 0.5 nM) or controls (1% DMSO) are incubated for 15 minutes at RT in assay buffer containing 50 mM Hepes pH 7.0, Fatty acid-free BSA 0.1%, Dithiothreitol (DTT) 2 mM, MgCl2 10 mM, EGTA 0.5 mM, Triton X-100 0.01%, MnCl2 5 mM. The kinase reaction is then initiated by the addition of ATP (2 μM) and the peptidic substrate STK1-biotin peptide (300 nM). After 2 hours of incubation at RT, the reaction is stopped and the unconsumed ATP depleted by the addition of ADP-Glo™ Reagent according to supplier instructions. After 40 minutes of incubation at RT, the Kinase Detection Reagent is then added to the assay plate according to supplier instructions. After 20 minutes of incubation at RT, the luminescence signal is measured with a plate-reading luminometer (PerkinElmer Envision or equivalent reader).
For orientation: In ADP-Glo the light output rises with the ADP produced.

Molecules are shown by their SMILES.

T1 sequence (P51617 194-712): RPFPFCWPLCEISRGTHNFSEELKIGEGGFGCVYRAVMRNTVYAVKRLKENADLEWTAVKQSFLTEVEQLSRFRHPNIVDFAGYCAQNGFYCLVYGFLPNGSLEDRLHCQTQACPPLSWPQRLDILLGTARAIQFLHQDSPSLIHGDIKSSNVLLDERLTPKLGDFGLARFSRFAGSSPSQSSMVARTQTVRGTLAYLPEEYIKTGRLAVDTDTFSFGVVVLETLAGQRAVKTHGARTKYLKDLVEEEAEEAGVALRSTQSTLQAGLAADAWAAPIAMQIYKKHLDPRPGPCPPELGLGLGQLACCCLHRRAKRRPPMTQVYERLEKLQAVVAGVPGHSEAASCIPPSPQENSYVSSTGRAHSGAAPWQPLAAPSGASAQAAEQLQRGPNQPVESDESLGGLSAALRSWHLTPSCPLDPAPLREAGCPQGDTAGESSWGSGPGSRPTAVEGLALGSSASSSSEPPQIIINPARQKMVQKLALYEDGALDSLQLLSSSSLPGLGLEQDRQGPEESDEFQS

Broadly, the IC50 is the concentration that gives 50% inhibition. In the case of `Cn1ccc(-c2cccc(C(=O)/N=c3\[nH]c4cc(N5CCOCC5=O)ccc4n3CCCO)c2)cc1=O` [Compound 153, (E)-N-(1-(3-hydroxypropyl)-5-(3-oxomorpholino)-1H-benzo[d]imidazol-2(3H)-ylidene)-3-(1-methyl-2-oxo-1,2-dihydropyridin-4-yl)benzamide], the half-maximal inhibitory concentration (IC50) on IRAK1 and at IRAK4 was at most 100 nM each time.

On to `O=C(/N=c1\[nH]c2cc(N3CCCOC3=O)ccc2n1CC1(F)CCOCC1)c1cccc(C(F)(F)F)c1` [Example 229, (E)-N-(1-((4-fluorotetrahydro-2H-pyran-4-yl)methyl)-5-(2-oxo-1,3-oxazinan-3-yl)-1H-benzo[d]imidazol-2(3H)-ylidene)-3-(trifluoromethyl)benzamide], for which the IC50 at IRAK1 was 100 to 1000 nM; at IRAK4 it was at most 100 nM.

In the case of `O=C(/N=c1\[nH]c2cc(N3CCOCC3=O)ccc2n1CCCCO)c1cccc(C(F)(F)F)c1` [Compound 17, (E)-N-(1-(4-hydroxybutyl)-5-(3-oxomorpholino)-1H-benzo[d]imidazol-2(3H)-ylidene)-3-(trifluoromethyl)benzamide], the IC50 at IRAK1 is 100 to 1000 nM; at IRAK4, at most 100 nM.

Turning to `O=C(/N=c1\[nH]c2cc(N3CCOCC3=O)ccc2n1CC1(CO)CC1)c1cccc(C(F)F)c1` [Compound 14, (E)-3-(difluoromethyl)-N-(1-((1-(hydroxymethyl)cyclopropyl)methyl)-5-(3-oxomorpholino)-1H-benzo[d]imidazol-2(3H)-ylidene)benzamide], the IC50 at IRAK1 and at IRAK4 was at most 100 nM throughout.

For the compound `O=C(/N=c1\[nH]c2cc(N3CCCOC3=O)ccc2n1CC(F)CO)c1cccc(C(F)(F)F)c1` (centres unmarked) [Compound 145, (E)-N-(1-(2-fluoro-3-hydroxypropyl)-5-(2-oxo-1,3-oxazinan-3-yl)-1H-benzo[d]imidazol-2(3H)-ylidene)-3-(trifluoromethyl)benzamide], the IC50 on IRAK1 and at IRAK4 was at most 100 nM throughout.

In the case of `CC1(C)OCCN(c2ccc3c(c2)[nH]/c(=N\C(=O)c2cccc(C(F)(F)F)c2)n3CCCO)C1=O` [Example 223, (E)-3-(trifluoromethyl)-N-(5-(2,2-dimethyl-3-oxomorpholino)-1-(3-hydroxypropyl)-1H-benzo[d]imidazol-2(3H)-ylidene)benzamide], the IC50 at IRAK1 and at IRAK4 was at most 100 nM each time.

`C[C@H](CCO)n1/c(=N/C(=O)c2cccc(S(C)(=O)=O)c2)[nH]c2cc(N3CCOCC3=O)ccc21` [Compound 24, (R,E)-N-(1-(4-hydroxybutan-2-yl)-5-(3-oxomorpholino)-1H-benzo[d]imidazol-2(3H)-ylidene)-3-(methylsulfonyl)benzamide]: the IC50 at IRAK1 is 100 to 1000 nM; at IRAK4 it was at most 100 nM.

As to `NC(=O)[C@H]1CC[C@@H](n2/c(=N/C(=O)c3cccc(C(F)(F)F)c3)[nH]c3cc(N4CCOCC4=O)ccc32)CC1` [Compound 150, (E)-N-(1-((1s,4s)-4-carbamoylcyclohexyl)-5-(3-oxomorpholino)-1H-benzo[d]imidazol-2(3H)-ylidene)-3-(trifluoromethyl)benzamide], the IC50 on IRAK1 was 100 to 1000 nM; on IRAK4, at most 100 nM.

For `CC(=O)NCc1cccc(C(=O)/N=c2\[nH]c3cc(N4CCOCC4=O)ccc3n2CCCO)c1` [Compound 47, (E)-3-(acetamidomethyl)-N-(1-(3-hydroxypropyl)-5-(3-oxomorpholino)-1H-benzo[d]imidazol-2(3H)-ylidene)benzamide], the IC50 at IRAK1 and on IRAK4 was 100 to 1000 nM each time.

Regarding `C[C@H](CCO)n1/c(=N/C(=O)c2cccc(C(F)(F)F)c2)[nH]c2cc(N3CCCOC3=O)ccc21` [Compound 43, (R,E)-N-(1-(4-hydroxybutan-2-yl)-5-(2-oxo-1,3-oxazinan-3-yl)-1H-benzo[d]imidazol-2(3H)-ylidene)-3-(trifluoromethyl)benzamide], the IC50 was 100 to 1000 nM on IRAK1 and at most 100 nM on IRAK4.

Turning to `O=C(/N=c1\[nH]c2cc(N3CCCOC3=O)ccc2n1C1CCC1)c1cccc(C(F)(F)F)c1` [Compound 170, (E)-N-(1-cyclobutyl-5-(2-oxo-1,3-oxazinan-3-yl)-1H-benzo[d]imidazol-2(3H)-ylidene)-3-(trifluoromethyl)benzamide], the figures for the IC50 at IRAK1 and at IRAK4 were above 1000 nM and at most 100 nM, respectively.

Turning to `O=C(/N=c1\[nH]c2cc(N3C(=O)COCC34CC4)ccc2n1CCCO)c1cccc(C(F)F)c1` [Example 190, (E)-3-(difluoromethyl)-N-(1-(3-hydroxypropyl)-5-(5-oxo-7-oxa-4-azaspiro[2.5]octan-4-yl)-1H-benzo[d]imidazol-2(3H)-ylidene)benzamide], the IC50 on IRAK1 and at IRAK4 was at most 100 nM each time.

Turning to `O=C(O)CCCn1/c(=N/C(=O)c2cccc(C(F)F)c2)[nH]c2cc(N3CCCOC3=O)ccc21` [Compound 169, (E)-4-(2-((3-(difluoromethyl)benzoyl)imino)-5-(2-oxo-1,3-oxazinan-3-yl)-2,3-dihydro-1H-benzo[d]imidazol-1-yl)butanoic acid], the IC50 is above 1000 nM at IRAK1 and at most 100 nM on IRAK4.

On to `N#Cc1cccc(C(=O)/N=c2\[nH]c3cc(N4CCOCC4=O)ccc3n2CCCCO)c1` [Compound 18, (E)-3-cyano-N-(1-(4-hydroxybutyl)-5-(3-oxomorpholino)-1H-benzo[d]imidazol-2(3H)-ylidene)benzamide], for which the IC50 at IRAK1 is 100 to 1000 nM; at IRAK4 it was at most 100 nM.

Regarding `O=C(/N=c1\[nH]c2cc(N3CCOCC3=O)ccc2n1C1(CO)CCCCC1)c1cccc(C(F)(F)F)c1` [Compound 39, (E)-N-(1-(1-(hydroxymethyl)cyclohexyl)-5-(3-oxomorpholino)-1H-benzo[d]imidazol-2(3H)-ylidene)-3-(trifluoromethyl)benzamide], the IC50 on IRAK1 and on IRAK4 was above 1000 nM in each case.

`CS(=O)(=O)c1cccc(C(=O)/N=c2\[nH]c3cc(N4CCOCC4=O)ccc3n2CC2(CO)CC2)c1` [Compound 13, (E)-N-(1-((1-(hydroxymethyl)cyclopropyl)methyl)-5-(3-oxomorpholino)-1H-benzo[d]imidazol-2(3H)-ylidene)-3-(methylsulfonyl)benzamide]: the IC50 at IRAK1 and on IRAK4 was at most 100 nM in each case.

With `COc1cc2c(cc1N1CCOCC1=O)[nH]/c(=N\C(=O)c1cccc(C#N)c1)n2CC1(CO)CC1` [Compound 51, (E)-3-cyano-N-(1-((1-(hydroxymethyl)cyclopropyl)methyl)-6-methoxy-5-(3-oxomorpholino)-1H-benzo[d]imidazol-2(3H)-ylidene)benzamide], the values for the IC50 at IRAK1 and on IRAK4 were 100 to 1000 nM and at most 100 nM, respectively.

As for `CC(F)(CO)Cn1/c(=N/C(=O)c2cccc(C(F)(F)F)c2)[nH]c2cc(N3CCCOC3=O)ccc21` (centres unmarked) [Example 226, (E)-N-(1-(2-fluoro-3-hydroxy-2-methylpropyl)-5-(2-oxo-1,3-oxazinan-3-yl)-1H-benzo[d]imidazol-2(3H)-ylidene)-3-(trifluoromethyl)benzamide], the IC50 at IRAK1 and at IRAK4 was at most 100 nM in each case.

Regarding `CC1(C)CN(c2ccc3c(c2)[nH]/c(=N\C(=O)c2cccc(C(F)F)c2)n3CCCO)C(=O)O1` [Example 200, (E)-3-(difluoromethyl)-N-(5-(5,5-dimethyl-2-oxooxazolidin-3-yl)-1-(3-hydroxypropyl)-1H-benzo[d]imidazol-2(3H)-ylidene)benzamide], the figures for the IC50 at IRAK1 and at IRAK4 were 100 to 1000 nM and at most 100 nM, respectively.

Values taken from patent publication US10059701B2 (Merck Patent GmbH, priority 2015, dated 2018).
